Measured values: patent US7393871B2, “Anionic and neutral complexes of ruthenium (II) with nitrogen oxide” (Siega S.R.L., priority 2003, dated 2008)
pIC50: −log10 of the molar value. Like-named read-outs stand apart in the source and are kept apart here.

Legend:
[1] = test system: TS/A, a murine adenocarcinoma cell line; test: Cytotoxicity, cell viability (MTU test) on TS/A cells; format: cell-based; settings: medium with 5% FCS
Procedure: (§1) The cytotoxicity of the ruthenium complexes prepared in Example 4 and 7 was tested on two significative tumor cell lines: MCF-7, a human hormone dependent mammary carcinoma cell line and TS/A, a murine adenocarcinoma cell line. At day 0 4000 TS/A cells and 5000 MCF-7 cells were sown in 96-welled dishes In 200 μl of culture medium. The culture medium used was RPMI medium supplemented with 10% FCS for the TS/A line and a mixture 1:1 of DMEM and F12 medium supplemented with 10% FCS for MCF-7. At day 1 the culture medium was removed and substituted with an identical medium containing 5% FCS only (control) or 5% FCS and the test compound (complex of example 4 or example 7) at the following concentrations: 0.1 μM, 1 μM, 3 μM, 10 μM, 30 μM, 100 μM, 300 μM, 600 μM and 1000 μM.
(§2) After 24, 48 and 72 hours cell viability was evaluated with a MTU test.

[2] = test system: MCF-7, a human hormone dependent mammary carcinoma cell line; test: Cytotoxicity, cell viability (MTU test) on MCF-7 cells; format: cell-based; settings: medium with 5% FCS
Procedure: as §1, §2

[3] = 24 hours exposure, read-out: IC50 TSA 24 hours
[4] = 48 hours exposure, read-out: IC50 TSA 48 hours
[5] = 72 hours exposure, read-out: IC50 TSA 72 hours
[6] = 24 hours exposure, read-out: IC50 MCF-7 24 hours
[7] = 48 hours exposure, read-out: IC50 MCF-7 48 hours
[8] = 72 hours exposure, read-out: IC50 MCF-7 72 hours

| Substance | pIC50 [1, 3] | pIC50 [1, 4] | pIC50 [1, 5] | pIC50 [2, 6] | pIC50 [2, 7] | pIC50 [2, 8] |
| --- | --- | --- | --- | --- | --- | --- |
| [Im2H][trans-Ru^IICl4(Im)NO] [Complex of Ex. 7] | 3.85 | 4.41 | 4.48 | 3.27 | 3.84 | 4.74 |
| [ImH][trans-Ru^IICl4(Me2SO—O)NO] [Complex of Ex. 4] | 3.81 | 4.70 | 4.77 | 3.12 | 3.93 | 4.59 |
